{"source": "patent US10543159B2", "about": "“Hair papilla cell activator” (Ezaki Glico Co., Ltd., priority 2014, dated 2020)", "key": {"[1]": {"tested_on": "FGF7 and VEGF", "experiment": "Gene expression with POs-Ca (R) combined with general hair-restoration components (Example 8)", "assay_type": "cell-based, human", "settings": "0.25% POs-Ca (R) with 0.25% glycyrrhizinate dipotassium, 1% tocopherol acetate, 0.125% pantothenyl ethyl ether or 1% Swertia japonica; two wells", "description": "(1) Glycyrrhizinate dipotassium (for biochemical use) from Wako Pure Chemical Industries, Ltd. was diluted to 20% (w/v) with water, and sterilized by being passed through a 0.20-μm filter (Minisart, surfactant-free cellulose acetate, Sartorius Stedim Biotech, US) with a 10-ml syringe (Terumo Corporation), and the resulting product was diluted with sterilized water, as required, and used.\n(2) (±)-α-Tocopherol acetate (first grade) from Wako Pure Chemical Industries, Ltd., as tocopherol acetate, and DL-pantothenyl ethyl ether from Santa Cruz Biotechnology, as pantothenyl ethyl ether, were each diluted 5-fold to 20% (v/v) with ethanol, and diluted with sterilized water, as required, and used.\n(3) A water-ethanol solution of Swertia japonica extract from Senken Co., Ltd., as a 100% (v/v) extract, was diluted with sterilized water, as required, and used.\n(1) 500 μl of a special medium in which 2×10^4 cells/ml of follicle dermal papilla cells were suspended was dispensed into a type I collagen-coated 24-well cell culture plate (Corning), and cultured at a cell density of 5×10^3 cells/cm^2 at 37° C. for 96 hours, until the cells reached subconfluent. […]\n(3) Two wells were used for culturing each of the DMEM solutions containing (a) to (i). The expression levels of FGF7 and VEGF were analyzed as in (3) to (8) of Example 3, and the average values of the two wells were compared."}, "[2]": {"tested_on": "human follicle dermal papilla cells", "experiment": "Follicle dermal papilla cell proliferation, Cell Counting Kit-F cell count (Example 2)", "assay_type": "cell-based", "description": "A strain (Lot. 3092504.12) sold by PromoCell (Germany) was used as human follicle dermal papilla cells. The cells were cultured in a CO2 incubator at 37° C., using a special medium for follicle dermal papilla cells (PromoCell), unless otherwise indicated. Cell subculturing was performed as follows: cells were seeded at 5000 to 10000 cells/cm^2 in an uncoated dish, and when the cells reached subconfluent, they were treated with trypsin-EDTA (0.03%) and detached, and then re-seeded. […] The medium was replaced about once every 3 days.\n1. The procedures (1) and (3) to (5) in Example 1 were performed in the same manner as described above. Solutions of the compositions shown in the following table were prepared in a concentration series starting from a 10% (w/v) aqueous solution of POs-Ca (R), a 12.9% (w/v) aqueous solution of G1P-Ca, a 1.84% (w/v) aqueous solution of CaCl2.2H2O, or a 10% (w/v) aqueous solution of POs-Na.\n2. In place of the conditions ((6), (7) and (8)) in Example 1, Cell Counting Kit-F (Dojindo Molecular Technologies, Inc.) was added to each well in accordance with the manual, and the number of cells was counted."}, "[3]": {"tested_on": "VEGF", "experiment": "Expression rate of VEGF among acidic saccharide salts, quantitative PCR (Example 6)", "assay_type": "cell-based, human", "settings": "Example 6: solutions (b)-(h) of b288 mixed 1:9 with DMEM, GAPDH reference, mean of 4 PCR assays", "description": "(§1) (1) 500 μl of a special medium in which 2×10^4 cells/ml of follicle dermal papilla cells were suspended was dispensed into a type I collagen-coated 24-well cell culture plate (Corning), and cultured at a cell density of 5×10^3 cells/cm^2 at 37° C. for 72 hours. […] Oji Cornstarch Co., Ltd.), (f) a 2.5% (w/v) aqueous solution of a phosphorylated oligosaccharide magnesium salt (POs-Mg; […] (3) Each of the solutions (a) to (c) was mixed with DMEM high glucose (Sigma, USA) at a ratio of 1:9. (4) Following the procedures (4) to (6) in Example 2, mRNA was extracted from the cells, cDNA was prepared, and then the expression levels of the VEGF, FGF-7, and GAPDH genes were quantified by quantitative PCR. (7) Using GAPDH as a reference gene, a comparative analysis of expression levels was performed with the analysis software (Bio-Rad CFX Manager 3.0) included in CFX96Touch. The expression levels were calculated under the default conditions of the software."}, "[4]": {"tested_on": "FGF-7", "experiment": "Expression rate of FGF-7 among acidic saccharide salts, quantitative PCR (Example 6)", "assay_type": "cell-based, human", "settings": "Example 6: solutions (b)-(h) of b288 mixed 1:9 with DMEM, GAPDH reference, mean of 4 PCR assays", "description": "as §1"}, "[5]": {"tested_on": "VEGF", "experiment": "Quantitative PCR gene expression in follicle dermal papilla cells: VEGF", "assay_type": "cell-based, human", "settings": "Example 5: 0.25% POs-Ca (R), 50 μM adenosine or both; DMEM serum-free, 37° C., 5 hours; Dunnett p<0.05, n=8"}, "[6]": {"tested_on": "Wnt5a", "experiment": "Quantitative PCR gene expression in follicle dermal papilla cells: Wnt5a", "assay_type": "cell-based, human", "settings": "37° C., 5 hours", "description": "(§2) (1) 500 μl of a special medium in which 4×10^4 cells/ml of follicle dermal papilla cells were suspended was dispensed into a type I collagen-coated 24-well cell culture plate (Corning), and cultured at a cell density of 1.0×10^4 cells/cm^2 at 37° C. for 42 hours. […] Each of the solutions (a) to (c) was mixed with DMEM high glucose (Sigma, USA) at a ratio of 1:9.\n(§3) (3) The medium was aspirated from each well obtained in (1), the well was washed by adding 1 ml of 1×PBS (137 mM NaCl, 8.1 mM Na2HPO4, 2.68 mM KCl, 1.47 mM KH2PO4 (pH 7.4); Wako Pure Chemical Industries, Ltd.), and aspirating the PBS, 500 μl of DMEM high glucose was added, and the cells were incubated in a CO2 incubator at 37° C. for 5 hours. […]\n(4) The medium was removed from each well, and then mRNA was extracted using CellAmp Direct RNA Prep Kit for RT-PCR (Takara). The method was performed in accordance with the manual for the kit.\n(5) 8 μl of the extracted mRNA solution (200 μl for each well) was used, and cDNA was obtained by the reverse transcription reaction at a scale of 40 μl, using PrimeScript RT Master Mix (Takara). The reaction conditions were as set forth in the manual for the kit.\n(6) 0.5 μl of each of cDNA solutions diluted 2-fold with water, 1 μl of a solution containing 4 μM of each of primers 1 and 2 for each of the genes shown in Table 2, 5 μl of SYBR Premix Ex Taq II (Takara), and 3.5 μl of water were added, and quantitative PCR was performed on each of the genes. Using CFX96 Touch (BIO-RAD, USA), denaturation treatment at 95° C. for 30 seconds was performed, and then a two-step cycle at 95° C. for 5 seconds and at 62° C. for 20 seconds was performed for 65 cycles. Fluorescence intensity after each cycle was measured.\n(§4) (7) Using PGK1 and GAPDH as reference genes, a comparative analysis of expression levels was performed with the analysis software (Bio-Rad CFX Manager 3.0) included in CFX96Touch. Relative expression levels were calculated under the default conditions of the software. […]"}, "[7]": {"tested_on": "FGF-7", "experiment": "Quantitative PCR gene expression in follicle dermal papilla cells: FGF-7", "assay_type": "cell-based, human", "settings": "37° C., 5 hours", "description": "as §2, §3\n(6) 0.5 μl of each of cDNA solutions diluted 2-fold with water, 1 μl of a solution containing 4 μM of each of primers 1 and 2 for each of the genes shown in Table 2, 5 μl of SYBR Premix Ex Taq II (Takara), and 3.5 μl of water were added, and quantitative PCR was performed on each of the genes. […] Fluorescence intensity after each cycle was measured.\nas §4"}, "[8]": {"settings": "Example 5: 0.25% POs-Ca (R), 50 μM adenosine or both, DMEM serum-free, Dunnett p<0.05, n=8"}, "[9]": {"settings": "Example 7: 0.25% POs-Mg or MgCl2.6H2O with equivalent magnesium, DMEM, Dunnett p<0.05"}}, "note": "Where a name gives a salt, the structure may show the parent alone.", "data": [{"compound": "CC(=O)Oc1c(C)c(C)c2c(c1C)CCC(C)(CCC[C@H](C)CCC[C@H](C)CCCC(C)C)O2", "note": "(mixture of isomers) [tocopherol acetate, (±)-α-Tocopherol acetate]", "values": [{"measurement": "synergistic effect with POs-Ca (R) on expression of FGF7 and VEGF", "setting": "[1]", "result": "None"}]}, {"compound": "O=P(O)(O)OC1O[C@H](CO)[C@@H](O)[C@H](O)[C@H]1O", "note": "(some centres unmarked) [G1P-Ca, glucose-1-phosphate calcium salt]", "values": [{"measurement": "working concentrations having the effect of proliferating follicle dermal papilla cells", "setting": "[2]; FIG. 1B-1D legends, Dunnett p<0.05", "result": "over 0.3%"}, {"measurement": "number of cells compared to that without addition", "setting": "[2]; concentration series of Table 1A, 3 days", "result": "increased at all concentrations"}, {"measurement": "VEGF, relative values of the expression levels based on the control as 1", "setting": "[3]; calcium salt", "result": "induced an increase"}, {"measurement": "VEGF, relative values of the expression levels based on the control as 1", "setting": "[3]; listed as G1P—Ca, calcium salt", "result": 1.46}, {"measurement": "FGF7, relative values of the expression levels based on the control as 1", "setting": "[4]; calcium salt", "result": "induced an increase"}, {"measurement": "FGF7, relative values of the expression levels based on the control as 1", "setting": "[4]; listed as G1P—Ca, calcium salt", "result": 1.10}]}, {"compound": "O=C([O-])[C@H](O)[C@@H](O)[C@H](O[C@@H]1O[C@H](CO)[C@H](O)[C@H](O)[C@H]1O)[C@H](O)CO.O=C([O-])[C@H](O)[C@@H](O)[C@H](O[C@@H]1O[C@H](CO)[C@H](O)[C@H](O)[C@H]1O)[C@H](O)CO.[Ca+2]", "note": "[Lactobio-Ca, calcium lactobionate]", "values": [{"measurement": "VEGF, relative values of the expression levels based on the control as 1", "setting": "[3]", "result": 1.48}, {"measurement": "VEGF, relative values of the expression levels based on the control as 1", "setting": "[3]; listed as calcium lactobionate", "result": "induced an increase"}, {"measurement": "FGF7, relative values of the expression levels based on the control as 1", "setting": "[4]", "result": 1.35}, {"measurement": "FGF7, relative values of the expression levels based on the control as 1", "setting": "[4]; listed as calcium lactobionate", "result": "induced an increase"}]}, {"compound": "Nc1ncnc2c1ncn2[C@@H]1O[C@H](CO)[C@@H](O)[C@H]1O", "note": "[adenosine]", "values": [{"measurement": "expression of VEGF compared to without treatment", "setting": "[5]", "result": "significant difference"}, {"measurement": "expression of WNTSA (Wnt5a) compared to without treatment", "setting": "[6]; [8]", "result": "significant difference"}, {"measurement": "expression of FGF7 compared to without treatment", "setting": "[7]; [8]", "result": "significant difference"}]}, {"compound": "CC1(C)[C@@H](O[C@H]2O[C@H](C(=O)O)[C@@H](O)[C@H](O)[C@H]2O[C@@H]2O[C@H](C(=O)O)[C@@H](O)[C@H](O)[C@H]2O)CC[C@]2(C)[C@H]3C(=O)C=C4[C@@H]5C[C@@](C)(C(=O)O)CC[C@]5(C)CC[C@@]4(C)[C@]3(C)CC[C@@H]12", "note": "[glycyrrhizinate dipotassium, Glycyrrhizinate dipotassium]", "values": [{"measurement": "synergistic effect with POs-Ca (R) on expression of FGF7 and VEGF", "setting": "[1]", "result": "None"}]}, {"compound": "magnesium chloride hexahydrate [general magnesium]", "values": [{"measurement": "expression of WNTSA", "setting": "[6]; [9]", "result": "not observed"}, {"measurement": "expression of FGF7", "setting": "[7]; [9]", "result": "not observed"}]}]}
